Consider six compounds from PubChem BioAssay (NCI).

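Step 1: Grow cells in 96-well plates. Step 2: Expose to compound for 48 hours at 5 concentrations. Step 3: Interpolate endpoints linearly; if unreached, use highest concentration. The concentration for 50% growth inhibition is given as GI50. TGI: concentration producing complete growth inhibition.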

Test systems include NCI-H23 lung; SK-MEL-2 melanoma; SR leukemia; NCI-H460 lung; 786-0 renal; NCI-H522 lung; MDA-MB-231 breast; OVCAR-3 ovarian; HCT-15 colon; M14 melanoma.
What all share (assay): NCI-60 cell line screen, 48 h

Take `Nc1ccc(/C=C/C(=O)NCc2cc3cc(-c4ccc(C(=O)N5CCC(F)(F)CC5)cc4)cc(-c4ccc(F)cc4)c3o2)cn1`: the GI50 in the test with NCI-H23 lung is above 100 µM; in the test with SK-MEL-2 melanoma, above 100 µM; in the test with SR leukemia, 12.9 µM; with NCI-H460 lung, 10.9 µM; in the test on 786-0 renal, 40.3 µM; in the test on NCI-H522 lung it was 0.773 µM. Further, the GI50 in the test on MDA-MB-231 breast was 15.1 µM; with OVCAR-3 ovarian, above 39.1 µM; with HCT-15 colon, 0.679 µM; in the test on M14 melanoma it was 0.459 µM. The TGI with NCI-H23 lung, in the test on SK-MEL-2 melanoma, with SR leukemia, in the test on NCI-H460 lung, in the test on 786-0 renal and in the test with NCI-H522 lung was above 100 µM throughout. Also, the TGI in the test with MDA-MB-231 breast is above 100 µM; with OVCAR-3 ovarian, above 100 µM; in the test with HCT-15 colon, above 100 µM; in the test with M14 melanoma, above 55.8 µM.

For `c1ccc2[nH]c(-c3ccc(Nc4nc(N5CCCCC5)nc(N5CCOCC5)n4)cc3)nc2c1`, the GI50 in the test with NCI-H23 lung was 3.05 µM; in the test on SK-MEL-2 melanoma it was 2.34 µM; in the test on SR leukemia, 0.73 µM; with NCI-H460 lung, 2.44 µM; with 786-0 renal, 1.54 µM; in the test on NCI-H522 lung, 2.36 µM. Further, the GI50 in the test on MDA-MB-231 breast was 2.5 µM; in the test with OVCAR-3 ovarian it was 2.4 µM; in the test with HCT-15 colon it was 1.88 µM; in the test on M14 melanoma, 2.05 µM. For the same compound, the TGI in the test on NCI-H23 lung turned out to be 15.7 µM; in the test with SK-MEL-2 melanoma, 5.36 µM; in the test with SR leukemia it was 5.73 µM; with NCI-H460 lung, 6.18 µM; with 786-0 renal it was 3.21 µM; in the test on NCI-H522 lung, 6.22 µM. For the same compound, the TGI in the test on MDA-MB-231 breast was 7.52 µM; in the test on OVCAR-3 ovarian it was 6.19 µM; with HCT-15 colon, 4.38 µM; in the test on M14 melanoma, 4.72 µM.

For the compound `N#Cc1ccc(NC(=O)C(CC(=O)OCc2ccccc2)NC(=O)OCc2ccccc2)cc1` (stereo not given), the GI50 with NCI-H23 lung, in the test with SR leukemia, in the test on NCI-H460 lung, in the test on 786-0 renal, with NCI-H522 lung and in the test on MDA-MB-231 breast was above 100 µM in each case. The GI50 in the test with HCT-15 colon and with M14 melanoma was above 100 µM each time. The TGI in the test on NCI-H23 lung, in the test on SK-MEL-2 melanoma, in the test on SR leukemia, with NCI-H460 lung, in the test on 786-0 renal and in the test on NCI-H522 lung was above 100 µM throughout. The TGI in the test with MDA-MB-231 breast, in the test on HCT-15 colon and in the test with M14 melanoma was above 100 µM throughout.

Take `C=C1C(=O)O[C@H]2[C@H]1CC/C(COC(=O)NCC(C)c1ccc(CC(C)C)cc1)=C\CC[C@@]1(C)O[C@@H]21` (stereo not given in full): the GI50 in the test with NCI-H23 lung is 3.69 µM; with SK-MEL-2 melanoma, 3.86 µM; in the test with SR leukemia it was 0.678 µM; in the test on NCI-H460 lung it was 4.69 µM; in the test with 786-0 renal it was 0.582 µM; in the test on NCI-H522 lung it was 0.661 µM. Further, the GI50 with MDA-MB-231 breast was 0.612 µM; in the test with OVCAR-3 ovarian, 0.625 µM; in the test on HCT-15 colon it was 0.595 µM. Moreover, the TGI with NCI-H23 lung came out at 8.69 µM; with SK-MEL-2 melanoma it was 8.48 µM; with SR leukemia, 3.6 µM; with NCI-H460 lung, 10 µM; in the test with 786-0 renal, 1.1 µM; with NCI-H522 lung, 1.77 µM. The TGI in the test with MDA-MB-231 breast, in the test with OVCAR-3 ovarian and with HCT-15 colon was 1.27 µM throughout.

Turning to `O=S(=O)(NCCCNc1nccc(-c2c(-c3ccc(F)cc3)nc3sccn23)n1)c1ccc2ccccc2c1`, the GI50 is 15.1 µM in the test on NCI-H23 lung; 6.63 µM with SK-MEL-2 melanoma; 4.01 µM in the test on SR leukemia; 3.74 µM in the test with NCI-H460 lung; 6.19 µM in the test on 786-0 renal; 5.66 µM with NCI-H522 lung. Moreover, the GI50 in the test with MDA-MB-231 breast was 3.8 µM; in the test on HCT-15 colon it was 3.26 µM; in the test on M14 melanoma, 6.53 µM. Further, the TGI in the test on NCI-H23 lung, in the test on SK-MEL-2 melanoma, in the test on SR leukemia, in the test on NCI-H460 lung, with 786-0 renal and in the test on NCI-H522 lung was above 100 µM throughout. In addition, the TGI in the test on MDA-MB-231 breast, in the test on HCT-15 colon and in the test on M14 melanoma was above 100 µM in each case.

Take `C=C1C(O)CC[C@]2(C)C1C1OC(C)(C)O[C@]13CC(=O)C(C)=C([C@H]1OC(C)(C)OC12)C3(C)C` (stereo not given in full): the TGI in the test with NCI-H23 lung, in the test on SR leukemia, in the test with NCI-H460 lung, in the test on 786-0 renal, in the test with MDA-MB-231 breast and in the test on OVCAR-3 ovarian was above 100 µM in each case. In the test on HCT-15 colon, the TGI is above 100 µM.
